Test results reported in patent US20260174857A1, “METHODS OF ADJUVANT TREATMENT FOR ALLERGY IMMUNOTHERAPY” (Revelation Biosciences, Inc., priority 2022, published 2026).

What was measured:
TLR4 [1] = molecular target: T1, TLR4 (Mus musculus, UniProt Q9JHF9+Q9QUK6); assay: in vitro cell based activity assay, IP-10 upregulation in mouse macrophages (J774 cell line)
T1 construct: endogenous in cells; host or cells: J774 mouse macrophage cell line
T1 sequence (Q9QUK6 26-835): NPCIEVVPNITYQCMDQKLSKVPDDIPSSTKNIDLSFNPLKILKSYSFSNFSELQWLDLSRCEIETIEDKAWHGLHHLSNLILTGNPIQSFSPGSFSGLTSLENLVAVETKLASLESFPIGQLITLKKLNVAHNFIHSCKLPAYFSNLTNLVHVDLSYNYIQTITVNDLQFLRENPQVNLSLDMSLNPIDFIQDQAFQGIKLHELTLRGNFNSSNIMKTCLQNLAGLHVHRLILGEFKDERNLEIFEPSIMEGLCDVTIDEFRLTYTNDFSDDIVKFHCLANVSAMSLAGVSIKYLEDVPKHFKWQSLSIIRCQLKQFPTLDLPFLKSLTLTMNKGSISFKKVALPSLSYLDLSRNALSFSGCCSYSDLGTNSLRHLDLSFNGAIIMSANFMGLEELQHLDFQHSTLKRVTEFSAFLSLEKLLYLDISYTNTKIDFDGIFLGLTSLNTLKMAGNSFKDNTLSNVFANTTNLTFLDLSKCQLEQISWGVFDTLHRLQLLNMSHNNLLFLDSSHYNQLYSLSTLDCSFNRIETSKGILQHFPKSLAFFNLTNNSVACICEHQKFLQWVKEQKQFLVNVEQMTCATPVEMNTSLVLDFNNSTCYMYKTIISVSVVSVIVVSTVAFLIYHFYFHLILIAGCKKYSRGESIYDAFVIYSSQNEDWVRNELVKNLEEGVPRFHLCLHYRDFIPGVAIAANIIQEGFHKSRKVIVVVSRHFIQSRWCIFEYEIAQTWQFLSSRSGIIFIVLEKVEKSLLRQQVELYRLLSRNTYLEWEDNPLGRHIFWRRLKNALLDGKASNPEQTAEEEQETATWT
T1 sequence (Q9JHF9 19-160): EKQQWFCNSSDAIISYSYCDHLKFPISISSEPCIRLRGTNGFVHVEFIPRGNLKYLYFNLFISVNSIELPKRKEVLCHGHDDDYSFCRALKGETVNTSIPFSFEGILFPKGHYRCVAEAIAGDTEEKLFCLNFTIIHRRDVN
Description: Interferon-β is required for production of IP-10, therefore IP-10 is considered a surrogate marker for Type I interferon activity.
(§1) IP-10 is an important cytokine associated with stimulation of the TRIF pathway. Evidence of IL-6 and IL-10 and IP-10 upregulation is confirmation that PHAD preparations as noted in this application are capable of TLR4 stimulation, with a bias toward stimulating the TRIF pathway, which is further confirmation of the amelioration or reduction of activity mediated through the MyD88 signaling pathway, which supports the amelioration of pro-inflammatory cytokine production.

TLR4 [2] = molecular target: T2, TLR4 (Rattus norvegicus, UniProt Q9QX05); assay: IL-6 and IL-10 cytokine response after IV administration in rats; assay type: in vivo
T2 construct: from tissue; host or cells: whole animal (rat), in vivo
T2 sequence (Q9QX05 26-835): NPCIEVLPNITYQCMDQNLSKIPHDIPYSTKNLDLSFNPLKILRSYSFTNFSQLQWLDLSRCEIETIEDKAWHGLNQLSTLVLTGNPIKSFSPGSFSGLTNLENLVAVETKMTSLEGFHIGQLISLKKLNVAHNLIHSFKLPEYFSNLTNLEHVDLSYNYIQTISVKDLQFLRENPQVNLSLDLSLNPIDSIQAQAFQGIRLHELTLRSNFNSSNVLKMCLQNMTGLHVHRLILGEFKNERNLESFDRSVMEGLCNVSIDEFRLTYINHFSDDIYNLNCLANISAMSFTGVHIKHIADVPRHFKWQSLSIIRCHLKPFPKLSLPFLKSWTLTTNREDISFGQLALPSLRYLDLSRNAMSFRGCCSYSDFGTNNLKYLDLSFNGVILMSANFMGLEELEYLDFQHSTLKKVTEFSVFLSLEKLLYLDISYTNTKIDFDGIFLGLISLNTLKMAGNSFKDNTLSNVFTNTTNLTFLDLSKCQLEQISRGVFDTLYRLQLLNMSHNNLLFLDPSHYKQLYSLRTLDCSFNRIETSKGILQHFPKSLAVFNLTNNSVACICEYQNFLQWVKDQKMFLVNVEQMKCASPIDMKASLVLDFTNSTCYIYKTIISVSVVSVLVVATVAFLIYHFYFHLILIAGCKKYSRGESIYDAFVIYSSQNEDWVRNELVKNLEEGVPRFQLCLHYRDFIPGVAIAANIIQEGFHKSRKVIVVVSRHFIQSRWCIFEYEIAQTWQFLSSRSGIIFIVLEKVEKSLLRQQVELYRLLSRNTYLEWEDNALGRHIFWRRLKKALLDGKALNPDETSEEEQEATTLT
Description: as §1

[3] = second dose at 24 hours, compared with first dose

- upregulation of IP-10 as a result of TLR4 stimulation (TLR4 [1]): IP-10 upregulation as a function of dose
- anti-inflammatory cytokines (e.g., IL-10) following a second dose (TLR4 [2]; [3]): larger increase
- pro-inflammatory cytokines (e.g., IL-6) following a second dose (TLR4 [2]; [3]): smaller increase
- inflammatory and protective cytokines following a first dose (TLR4 [2]; two doses of PHAD, after first dose): initial increase
Substance: phosphorylated hexaacyl disaccharide [PHAD]
